Test results from PMC6079014, “Calcium is an essential cofactor for metal efflux by the ferroportin transporter family” (Nature Communications, 2018).
Values joined by “and” are separate entries in the source; they are usually repeats but may differ in a detail not shown here. Identical values can stand only once.

Legend:
BbFpn N196A = BbFpn N196A (Bdellovibrio bacteriovorus, UniProt Q6MLJ0, N196A); test: Isothermal titration calorimetry, N196A BbFpn; type: binding, Bdellovibrio bacteriovorous
BbFpn Q84E = BbFpn Q84E (Bdellovibrio bacteriovorus, UniProt Q6MLJ0, Q84E); test: Isothermal titration calorimetry, Q84E BbFpn; type: binding, Bdellovibrio bacteriovorous
mouse Fpn (Fpn-C2) = biological target: T1, mouse Fpn (Fpn-C2) (Mus musculus, UniProt Q9JHI9, DEL251-290/DEL401-449); test: Isothermal titration calorimetry, thermostabilized mouse Fpn construct Fpn-C2; type: binding
T1 construct: generated from full-length mouse Fpn (UniProt: Q9JHI9); GFP (C); made in house; host or cells: Sf9 insect cells (baculovirus)
T1 sequence (Q9JHI9 with tags, fused parts or gaps DEL251-290/DEL401-449): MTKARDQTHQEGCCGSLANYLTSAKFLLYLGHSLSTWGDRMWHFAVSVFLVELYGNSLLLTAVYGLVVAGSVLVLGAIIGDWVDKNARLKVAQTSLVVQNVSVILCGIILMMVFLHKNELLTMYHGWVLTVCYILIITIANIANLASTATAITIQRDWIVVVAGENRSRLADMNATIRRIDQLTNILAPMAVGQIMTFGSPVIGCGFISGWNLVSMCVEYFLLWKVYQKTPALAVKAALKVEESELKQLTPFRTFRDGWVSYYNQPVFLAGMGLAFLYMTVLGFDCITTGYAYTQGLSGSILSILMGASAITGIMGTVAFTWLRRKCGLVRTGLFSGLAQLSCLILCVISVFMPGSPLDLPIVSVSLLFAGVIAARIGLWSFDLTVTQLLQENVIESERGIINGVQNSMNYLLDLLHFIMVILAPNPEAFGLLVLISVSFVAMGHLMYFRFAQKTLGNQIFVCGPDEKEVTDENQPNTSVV
Text: To obtain a purified mammalian Fpn protein conducive for biophysical studies, we generated a protein construct with an increased thermal stability (Deshpande et al., 2018). In brief, the construct (Fpn-C2) was generated from full-length mouse Fpn (UniProt: Q9JHI9 [https://www.uniprot.org/uniprot/Q9JHI9]) by deleting two-loop regions (residues 251–290 and 401–449), followed by an overlapping PCR incorporating the E219A mutation to generate Fpn-C2-E219A. The genes were subsequently cloned with a C-terminal GFP fusion into a baculovirus transfer vector (pFastBac1; Thermo Fisher Scientific) and the proteins were expressed using the Bac-to-Bac Baculovirus and Sf9 cells (Thermo Fisher Scientific) expression method according to the manufacturer’s protocol (Thermo Fisher Scientific). For large scale expression of the protein, 6L Sf9 cells (2 × 10^6 cells/ml) were infected with virus at an optimal multiplicity of infection (MOI) of 2.5 in Insect-XPRESS™ Protein-free Insect Cell Medium with L-glutamine (Lonza) and incubated at 27 °C with shaking at 130 rpm. The cells were spun down 48 h post-infection at 1500 × g for 10 min and the pellet stored at −20 °C until further use.
For Fpn-C2 and Fpn-C2-E219A purification (Deshpande et al., 2018), Sf9 cells were thawed at room temperature with the addition of 2 μl Benzonase (250 units/μL, Sigma-Aldrich), 1 mM MgSO4, 0.2 mM PMSF, and lysed by a single pass through cooled EmulsiFlex-C3 homogenizer (Avestin). All subsequent steps were performed at 4 °C. Membranes were harvested by centrifugation at 106,000 × g for 1 h, and pellets resuspended in Buffer A. The protein was subsequently purified as BbFpn, but with the addition of a second wash on the Ni-NTA column with three column volumes of 25 mM imidazole pH 8, 300 mM NaCl, and 0.03% DDM, and with 0.03% DDM instead of LMNG in the elution and SEC purification. The SEC eluted protein was concentrated to ~10 mg/ml as determined by the BCA assay (Thermo Fisher Scientific) method and stored at −80 °C until further use.
Protein samples were purified as above and diluted to 0.03 mM (1.5 mg/ml) for ITC experiments. The buffer used for ITC was 20 mM Tris pH 8, 50 mM NaCl, and 0.004% LMNG. The buffer was degassed in vacuum (2 h) and pretreated with Chelex-100 (Bio-Rad) to remove residual calcium and/or metal ions bound with moderate affinity. This was done by first washing the Chelex-100 beads with water and then running the dialysis buffer through the beads in a gravity flow column. The samples were subsequently dialyzed overnight against their respective gel filtration buffers. ITC measurements were obtained by using a MicroCal iTC 200 calorimeter (GE Healthcare) and MicroCal PEAQ-ITC (Malvern Instruments) at 20 °C. For calcium and strontium binding measurements, a 2 mM solution was prepared in the protein buffer using a standard 1 M stock solution. […]. For MgCl2 and KCl measurements, a 2–5 mM solution was prepared in the respective buffer.
In each experiment, the protein solution was loaded into the sample cell, and the ligand solution was loaded in the syringe. […] To obtain the effective heat of binding, the heat of dilution, measured by injecting the ligand solution alone into buffer, was subtracted prior to data analysis. The data were fitted using the ‘one binding site’ model using the MicroCal PEAQ-ITC Analysis Software (Malvern Instruments), and the apparent molar reaction […] (ΔH°), entropy (ΔS°), dissociation constant (Kd), and stoichiometry of binding (N) were determined. […]

[1] = Supplementary Fig. 7a, one experiment

Chain of BbFpn N196A (Q6MLJ0 whole entry N196A): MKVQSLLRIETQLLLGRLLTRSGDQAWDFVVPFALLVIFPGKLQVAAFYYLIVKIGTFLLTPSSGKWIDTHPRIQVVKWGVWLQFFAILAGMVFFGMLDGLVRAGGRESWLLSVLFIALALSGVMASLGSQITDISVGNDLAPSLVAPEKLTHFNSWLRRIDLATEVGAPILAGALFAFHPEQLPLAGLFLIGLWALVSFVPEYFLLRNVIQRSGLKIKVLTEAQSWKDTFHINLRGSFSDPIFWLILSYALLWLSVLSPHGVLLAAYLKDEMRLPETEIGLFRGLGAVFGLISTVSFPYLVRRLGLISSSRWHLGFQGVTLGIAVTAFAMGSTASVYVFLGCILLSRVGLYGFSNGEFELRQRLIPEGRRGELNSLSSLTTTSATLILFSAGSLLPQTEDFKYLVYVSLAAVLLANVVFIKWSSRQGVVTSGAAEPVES
Chain of BbFpn Q84E (Q6MLJ0 whole entry Q84E): as the sequence (Q6MLJ0 whole entry N196A) above, with Q84E, A196N counted along it

Q: [Ca+2] [Ca^2+, calcium] was tested. Which “Binding to N196A BbFpn by ITC (in words)” value (BbFpn N196A) did it give?
A: The value was “complete loss”.

Q: What about the “Binding to Q84E BbFpn by ITC (in words)” value (BbFpn Q84E) of the same molecule?
A: Its value is “no Ca^2+ or Sr^2+ binding”.

Q: What about the “-TΔS, ITC” value (mouse Fpn (Fpn-C2); [1]) of the same molecule?
A: Its value is -9.95 kcal/mol.

Q: And the “N (sites), ITC” value (mouse Fpn (Fpn-C2); [1])?
A: Its value is 0.804 ± 4.8e-2.

Q: And the “ΔG, ITC” value (mouse Fpn (Fpn-C2); [1])?
A: Its value is -7.47 kcal/mol.

Q: What about the “ΔH, ITC” value (mouse Fpn (Fpn-C2); [1]) of the same molecule?
A: The value was 2.49 ± 0.210 kcal/mol.

Q: And the Kd (mouse Fpn (Fpn-C2); thermostabilized mouse Fpn-C2, read-out: Kd (ITC))?
A: The Kd was ~3000 nM and 2700 nM.
